Measurements taken from patent publication US20090306059A1, “CYCLIC AMINE DERIVATIVE HAVING SUBSTITUTED ALKYL GROUP” (priority 2005, published 2009).
Structures can show the parent of a compound that is named as a salt.

Tested on: platelet aggregation caused by ADP in platelet-rich plasma (PRP) after oral administration
Assay: Test Example 2: ex vivo platelet aggregation inhibitory effect
Assay type: in vivo, rat (male Sprague-Dawley)
Conditions: 10 mg/kg orally, 4 hours before blood sampling, rat PRP, ADP final concentration 3 μM, maximum platelet aggregation ratio, read-out: Test Example 1 (% inhibition) 10 mg/kg
Method: Male Sprague-Dawley rats (8-week old, Japan SLC, Inc.), 3 to 4 animals per group, were used for the test. The platelet aggregation was measured with an automatic platelet aggregometer (MCM Hema Tracer 313M, MC Medical, Inc.) by a partially modified method of Bom et al., The Journal of Physiology, Vol. 168, Section 178 (1963). Test compounds suspended in 5% Arabian gum solution or 10% dimethylacetamide/64% polyethylene glycol 400/16% Tween 80 solution were orally administered in a dose ratio of 1 mL/kg 4 hours before blood sampling. Vehicle was orally administered 4 hours in a dose ratio of 1 mL/kg before the sampling of the blood for the control group. 6.3 ml of blood was sampled from the ventral aorta of a rat anesthetized with pentobarbital (40 mg/kg) using 3.8% (w/v) sodium citrate solution (0.7 ml) as an anticoagulant. The obtained blood containing citrate was centrifuged (230 g, 15 minutes, room temperature) to separate PRP. The blood after the separation of PRP was further centrifuged (2,000 g, 10 minutes, room temperature) to separate PPP. After the number of blood platelet in PRP was measured with a multi-item automatic blood corpuscle counter (KX-21N, Sysmex Corporation), PPP was added thereto to adjust the blood platelet to 5×10^8/ml. After PRP (240 μl) was pipetted into cuvettes, the cuvettes were set in the automatic platelet aggregometer. After preliminary warming (37° C.) for 1.5 minutes, 10 μl of ADP solution (final concentration 3 μM) was added to cause platelet aggregation. Platelet aggregation was measured for 5 minutes and the maximum platelet aggregation ratio was determined.

SMILES | inhibition at 10 mg/kg
CCOC(=O)CN1CCN(C/C=C2\CN(C(C(=O)C3CC3)c3ccccc3F)CCC2SC(C)=O)CC1=O (stereo not shown) [Example 13, (E)-4-(Acetylsulfanyl)-1-[2-cyclopropyl-1-(2-fluorophenyl)-2-oxoethyl]-3-{2-[4-(ethoxycarbonylmethyl)-3-oxopiperazin-1-yl]ethylidene}piperidine] | 63%
CCOC(=O)CCN1CCN(C/C=C2\CN(C(C(=O)C3CC3)c3ccccc3F)CCC2SC(C)=O)CC1=O (stereo not shown) [Example 17, (E)-4-(Acetylsulfanyl)-1-[2-cyclopropyl-1-(2-fluorophenyl)-2-oxoethyl]-3-(2-{4-[2-(ethoxycarbonyl)ethyl]-3-oxopiperazin-1-yl}ethylidene)piperidine] | 92%
CCOC(=O)CCN1CCN(C/C=C2\CN(C(C(=O)C3CC3)c3ccccc3F)CCC2SC(C)=O)C(=O)C1 (stereo not shown) [Example 21, (E)-4-(Acetylsulfanyl)-1-[2-cyclopropyl-1-(2-fluorophenyl)-2-oxoethyl]-3-(2-{4-[2-(ethoxycarbonyl)ethyl]-2-oxopiperazin-1-yl}ethylidene)piperidine dihydrochloride] | 90%
CC(=O)SC1CCN(C(C(=O)C2CC2)c2ccccc2F)C/C1=C\CN1CCN(CCC(=O)O)CC1=O (stereo not shown) [Example 24, (E)-4-(Acetylsulfanyl)-3-(2-{4-[2-(carboxyethyl)]-2-oxopiperazin-1-yl}ethylidene)-1-[2-cyclopropyl-1-(2-fluorophenyl)-2-oxoethyl]piperidine dihydrochloride] | 85%
COC(=O)[C@@H]1CCCN1C/C=C1\CN(C(C(=O)C2CC2)c2ccccc2F)CCC1SC(C)=O (stereo partly drawn) [Example 25, (E)-4-(Acetylsulfanyl)-1-[2-cyclopropyl-1-(2-fluorophenyl)-2-oxoethyl]-3-{2-[(2S)-(methoxycarbonyl)pyrrolidin-1-yl]ethylidene}piperidine dihydrochloride] | 92%
COC(=O)[C@@H]1CCCN1C/C=C1\CN(C(C(=O)C2CC2)c2ccccc2F)CCC1S (stereo partly drawn) [Example 26, (E)-1-[2-Cyclopropyl-1-(2-fluorophenyl)-2-oxoethyl]-3-{2-[(2S)-(methoxycarbonyl)pyrrolidin-1-yl]ethylidene}-4-sulfanylpiperidine dihydrochloride] | 92%
CCOC(=O)C1CCN(C/C=C2\CN(C(C(=O)C3CC3)c3ccccc3F)CCC2SC(C)=O)CC1 (stereo not shown) [Example 29, (E)-4-(Acetylsulfanyl)-1-[2-cyclopropyl-1-(2-fluorophenyl)-2-oxoethyl]-3-{2-[4-(ethoxycarbonyl)piperidin-1-yl]ethylidene}piperidine dihydrochloride] | 89%
CCOC(=O)C1CCN(C/C=C2\CN(C(C(=O)C3CC3)c3ccccc3F)CCC2S)CC1 (stereo not shown) [Example 30, (E)-1-[2-Cyclopropyl-1-(2-fluorophenyl)-2-oxoethyl]-3-{2-[4-(ethoxycarbonyl)piperidin-1-yl]ethylidene}-4-sulfanylpiperidine dihydrochloride] | 93%
O=C(O)C1CCN(C/C=C2\CN(C(C(=O)C3CC3)c3ccccc3F)CCC2S)CC1 (stereo not shown) [Example 31, (E)-3-{2-[4-(Carboxypiperidine)-1-yl]ethylidene}-1-[2-cyclopropyl-1-(2-fluorophenyl)-2-oxoethyl]-4-sulfanylpiperidine dihydrochloride] | 82%
CC(=O)SC1CCN(C(C(=O)C2CC2)c2ccccc2F)C/C1=C\CO (stereo not shown) [Example 32, (E)-4-(Acetylsulfanyl)-1-[2-cyclopropyl-1-(2-fluorophenyl)-2-oxoethyl]-3-(2-hydroxyethylidene)piperidine] | 86%
CCOC(=O)CN1CCC(/C=C2\CN(C(C(=O)C3CC3)c3ccccc3F)CCC2SC(C)=O)CC1 (stereo not shown) [Example 36, (E)-4-(Acetylsulfanyl)-1-[2-cyclopropyl-1-(2-fluorophenyl)-2-oxoethyl]-3-{[1-(ethoxycarbonylmethyl)piperidin-4-yl]methylidene}piperidine dihydrochloride] | 80%
CCOC(=O)CN1CCC(/C=C2\CN(C(C(=O)C3CC3)c3ccccc3F)CCC2S)CC1 (stereo not shown) [Example 38, (E)-1-[2-Cyclopropyl-1-(2-fluorophenyl)-2-oxoethyl]-3-{[1-(ethoxycarbonylmethyl)piperidin-4-yl]methylidene}-4-sulfanylpiperidine dihydrochloride] | 66%
C/C(Cn1cc(C(=O)O)cn1)=C1/CN(C(C(=O)C2CC2)c2ccccc2F)CCC1S (stereo not shown) [Example 62, (E)-3-{[2-(4-Carboxy-1H-pyrazol-1-yl)-1-methyl]ethylidene}-1-[2-cyclopropyl-1-(2-fluorophenyl)-2-oxoethyl]-4-sulfanylpiperidine hydrochloride] | 94%
O=C(O)C/C=C1\CN(C(C(=O)C2CC2)c2ccccc2F)CCC1S (stereo not shown) [Example 64, (E)-3-(2-Carboxyethylidene)-1-[2-cyclopropyl-1-(2-fluorophenyl)-2-oxoethyl]-4-sulfanylpiperidine hydrochloride] | 94%
CC(=O)SC1CCN(C(C(=O)C2CC2)c2ccccc2F)C/C1=C/CO (stereo not shown) [Example 66, (Z)-4-(Acetylsulfanyl)-1-[2-cyclopropyl-1-(2-fluorophenyl)-2-oxoethyl]-3-(2-hydroxyethylidene)piperidine hydrochloride] | 87%
O=C(O)CCCN1CCN(C/C=C2\CN(C(C(=O)C3CC3)c3ccccc3F)CCC2S)C(=O)C1 (stereo not shown) [Example 72, (E)-3-(2-{4-[3-(Carboxypropyl)]-2-oxopiperazin-1-yl}ethylidene)-1-[2-cyclopropyl-1-(2-fluorophenyl)-2-oxoethyl]-4-sulfanylpiperidine dihydrochloride] | 76%
COC(=O)[C@@H]1C[C@@H](O)CN1C/C=C1\CN(C(C(=O)C2CC2)c2ccccc2F)CCC1SC(C)=O (stereo partly drawn) [Example 78, (E)-4-(Acetylsulfanyl)-1-[2-cyclopropyl-1-(2-fluorophenyl)-2-oxoethyl]-3-{2-[(2S,4R)-4-hydroxy-2-(methoxycarbonyl)pyrrolidin-1-yl]ethylidene}piperidine dihydrochloride] | 75%
CCOC(=O)CN(C)C/C=C1\CN(C(C(=O)C2CC2)c2ccccc2F)CCC1SC(C)=O (stereo not shown) [Example 81, (E)-4-(Acetylsulfanyl)-1-[2-cyclopropyl-1-(2-fluorophenyl)-2-oxoethyl]-3-{2-[N-(ethoxycarbonylmethyl)-N-methylamino]ethylidene}piperidine dihydrochloride] | 83%
CCOC(=O)CN(C)C/C=C1\CN(C(C(=O)C2CC2)c2ccccc2F)CCC1S (stereo not shown) [Example 82, (E)-1-[2-Cyclopropyl-1-(2-fluorophenyl)-2-oxoethyl]-3-{2-[N-(ethoxycarbonylmethyl)-N-methylamino]ethylidene}-4-sulfanylpiperidine dihydrochloride] | 81%
CCOC(=O)CN(C)C/C=C1/CN(C(C(=O)C2CC2)c2ccccc2F)CCC1SC(C)=O (stereo not shown) [Example 84, (Z)-4-(Acetylsulfanyl)-1-[2-cyclopropyl-1-(2-fluorophenyl)-2-oxoethyl]-3-{2-[N-(ethoxycarbonylmethyl)-N-methylamino]ethylidene}piperidine dihydrochloride] | 82%
CCOC(=O)CN(C)C/C=C1/CN(C(C(=O)C2CC2)c2ccccc2F)CCC1S (stereo not shown) [Example 85, (Z)-1-[2-Cyclopropyl-1-(2-fluorophenyl)-2-oxoethyl]-3-{2-[N-(ethoxycarbonylmethyl)-N-methylamino]ethylidene}-4-sulfanylpiperidine dihydrochloride] | 82%
CCOC(=O)CCCN(C)C/C=C1/CN(C(C(=O)C2CC2)c2ccccc2F)CCC1SC(C)=O (stereo not shown) [Example 89, (Z)-4-(Acetylsulfanyl)-1-[2-cyclopropyl-1-(2-fluorophenyl)-2-oxoethyl]-3-(2-{N-[3-(ethoxycarbonyl)propyl]-N-methylamino}ethylidene)piperidine dihydrochloride] | 83%
